Results as given in PubChem BioAssay AID743369.
Calls of active or inactive are those of the source. The rule behind the calls is not given here.

These compounds were tested against Acetylcholine-binding protein (Lymnaea stagnalis) (UniProt P58154) (assay: acetylcholine-binding protein ligand affinity – biochemical, Lymnaea stagnalis, His-tagged, [125I]alpha-bungarotoxin (AID 743369)). Settings: Purified AChBP, [125I]-alpha-bungarotoxin displacement, filtration.
Acetylcholine-binding protein (Lymnaea stagnalis), sequence (P58154 whole entry, looked up): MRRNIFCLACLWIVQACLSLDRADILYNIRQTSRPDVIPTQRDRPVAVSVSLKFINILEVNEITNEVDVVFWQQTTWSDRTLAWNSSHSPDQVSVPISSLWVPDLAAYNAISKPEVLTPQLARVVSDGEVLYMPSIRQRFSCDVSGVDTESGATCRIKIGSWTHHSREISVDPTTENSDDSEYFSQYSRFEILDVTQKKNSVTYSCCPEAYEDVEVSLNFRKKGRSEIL

Which Ki does the source give for COc1cc(CCN)c2c(c1OC)SSSSS2 here?
The Ki was 790 nM.

With CC/C=C/[C@@H]1CC[C@]2(C[C@H]3CC[C@H]4[C@@H](C(=O)OC(CC)CCCCCCCCCCCCC[C@@H]5O[C@](O)(CCN)[C@H](O)N(CCCN)C5=O)[C@@]5(CCC[C@H](C)O5)NC(=[N+]34)N2)O1 (stereo partly specified) as the compound, how does the Ki read?
The Ki was 2500 nM.

Which Ki does the source give for C[C@@H](N)[C@H](O)CCCCCCCC(=O)CCCCCCCCCCCCCC[C@@H](O[C@@H]1O[C@H](CO)[C@H](O)[C@H](O)[C@H]1O)[C@@H](C)N here?
The Ki was 28000 nM.

For NC1=N/C(=C2/CCNC(=O)c3[nH]ccc32)C(=O)N1, which Ki is on record?
The Ki was “inactive”.

Which Ki does the source give for COn1c(Br)c2c3c(cccc31)[C@H]1C[C@@H](C)CN(C)[C@@H]1C2 here?
Its Ki is 830 nM.

COc1cc2c3c(ccnc3c1OC)NC=C2 was tested. Which Ki did it give?
Its Ki is 3000 nM.
